In US12071421B2, “Process for the synthesis of substituted chloromethyl dialkylphosphates” (HELSINN HEALTHCARE SA, priority 2011, dated 2024):
≈ marks a conversion by molar mass, not a printed value.

Experiments:
[1] = Dog PKs study / comparative bioequivalence (IV vs oral netupitant); format: in vivo, Beagle dogs
Method: The pharmacokinetics (PKs) study of three compounds (e.g., compound nos. 1-3 of the above Table 3), as compared to a reference compound—netupitant (orally administered), on rat and dog was conducted.
Dog PKs Study: the dogs tested in the study were Beagle dogs, body weight 8-10 kg, and 3 male dogs per group. The four PK experiments were performed in 12 naïve dogs. The dose was 3 mg/kg administered via intravenous (IV) slow injection into the left and right cephalic or left and right saphenous veins used in rotation. […] The dose was administered to each animal on the basis of the most recently recorded body weight and the volume administered was recorded for each animal. Netupitant 3 mg/kg dose was tested at 2 ml/kg in vehicle (DMSO:Ethanol:Tween80 solution=[…], v/v), dependence on its solubility. Dose was freshly prepared before each single PK experiment. Before administration, dogs were fasted 12 hr, water ad libitum. After 480 min time point blood was collected, dogs were fed. 0.5 ml blood was collected in heparinised tubes at pre-dose and at 2, 5, 15, 30 min, 1, 2, 4, 6, 8, 12, 24, 36, 48 and 72 hr after intravenous administration. […] Prepared quantification standard curve at 2, 10, 40, 100, 200, 1000 and 2000 ng/ml (diluted from methanol stock with methanol containing 1% formic acid). […] Dog plasma samples were analyzed by using an API4000 MS coupled with HPLC. […]

[2] = Aqueous solubility (neutral pH); format: physicochemical; conditions: for solubility: aqueous medium
[3] = Chemical stability according to ICH guidelines under accelerated conditions (40° C.); format: physicochemical
Method: Stability was tested according to ICH guidelines under accelerated conditions (40° C.).

[4] = Stability studies of GA1 parent acid species and its salts (degradation on storage)
Method: Their synthesis employed either a) neutralization of the dried diacid phosphate species and its corresponding base salts or b) a direct acid deprotection starting from the dried di(tert-butyl)-protected phosphate species. Neutralization was performed with L-histidine, magnesium salt, N-methyl-D-glucamine (dimeglumine), and L-lysine. Both procedures were tried in the synthesis of citric derivatives whereas with other acids the direct deprotection reaction was used. The figures below show the most relevant structures.
Alphabetical letters are used to denote data points on the graph that correspond to degradation percentage values over time for respective salts of the same parent compound as just described above and in Table 2 below.

## Cc1ccccc1-c1cc(N2CCN(C)CC2)ncc1N(C)C(=O)C(C)(C)c1cc(C(F)(F)F)cc(C(F)(F)F)c1 [Compound 9, 2-(3,5-bis(trifluoromethyl)phenyl)-N,2-dimethyl-N-(6-(4-methylpiperazin-1-yl)-4-(o-tolyl)pyridin-3-yl)propanamide, reference compound]
[1]; male, beagle, plasma, PO, 3 mg/kg, read-out: Mean AUC0-t (converted)
  AUC(0-t): 5120 ng·h/mL
[2]; pH 7, unit inferred
  solubility: 250 µg/mL (≈ 432 µM)

## Cc1ccccc1-c1cc([N+]2([O-])CCN(C)CC2)ncc1N(C)C(=O)C(C)(C)c1cc(C(F)(F)F)cc(C(F)(F)F)c1 [Compound 5, reference compound]
[2]; pH 7
  solubility: ~1000 µg/mL (≈ 1680 µM)
[3]
  Chemical Stability: medium

## Cc1ccccc1-c1cc([N+]2([O-])CCN(C)CC2)[n+]([O-])cc1N(C)C(=O)C(C)(C)c1cc(C(F)(F)F)cc(C(F)(F)F)c1 [Compound 6]
[3]
  Chemical Stability: low

## Cc1ccccc1-c1cc(N2CCN(C)CC2)[n+]([O-])cc1N(C)C(=O)C(C)(C)c1cc(C(F)(F)F)cc(C(F)(F)F)c1 [Compound 4]
[2]; pH 7
  solubility: ~600 µg/mL (≈ 1010 µM)
[3]
  Chemical Stability: medium

## Cc1ccccc1-c1cc(N2CC[N+](C)(COP(=O)([O-])O)CC2)ncc1N(C)C(=O)C(C)(C)c1cc(C(F)(F)F)cc(C(F)(F)F)c1 [1. NaOH, 3 eq. 2. Fumaric acid, 1 eq.]
[4]; 12 days
  Degradation: +1.80% in 12 days (in argon)
[4]; 14 days
  Degradation: +1.95% in 14 days (in air)

## Cc1ccccc1-c1cc(N2CC[N+](C)(COP(=O)([O-])O)CC2)ncc1N(C)C(=O)C(C)(C)c1cc(C(F)(F)F)cc(C(F)(F)F)c1 [N-methyl-D-glucamine (Meglumine), 2 eq.]
[4]; 6 days
  Degradation: +0.87% in 6 days (in air)
[4]; 11 days
  Degradation: +1.52% in 11 days (in argon)

## CC(=O)OC[N+]1(C)CCN(c2cc(-c3ccccc3C)c(N(C)C(=O)C(C)(C)c3cc(C(F)(F)F)cc(C(F)(F)F)c3)cn2)CC1 [Compound 7]
[2]
  Solubility (neutral pH): insoluble
[3]
  Chemical Stability: low

## Cc1ccccc1-c1cc(N2CC[N+](C)(COP(=O)([O-])O)CC2)ncc1N(C)C(=O)C(C)(C)c1cc(C(F)(F)F)cc(C(F)(F)F)c1 [L-lysine, 1 eq.]
[4]; 12 days
  Degradation: +0.48% in 12 days (in argon)
[4]; 14 days
  Degradation: +0.69% in 14 days (in air)

## Cc1ccccc1-c1cc(N2CC[N+](C)(COP(=O)(O)O)CC2)ncc1N(C)C(=O)C(C)(C)c1cc(C(F)(F)F)cc(C(F)(F)F)c1 [Compound 1]
[1]; IV
  bioequivalence to oral netupitant at the same dose: bioequivalent
[2]; pH 7
  solubility: 10000 to 15000 µg/mL
[3]
  Chemical Stability: medium

## Cc1ccccc1-c1cc(N2CC[N+](C)(COP(=O)(O)O)CC2)ncc1N(C)C(=O)C(C)(C)c1cc(C(F)(F)F)cc(C(F)(F)F)c1.Cl.[Cl-] [chloride hydrochloride HCl salt of GA1, 4-(5-(2-(3,5-bis(trifluoromethyl)phenyl)-N,2-dimethylpropanamido)-4-(o-tolyl)pyridin-2-yl)-1-methyl-1-((phosphonooxy)methyl)piperazin-1-ium chloride hydrochloride]
[4]
  resistance to decoupling of the oxo-phosphonomethyl and reversion of the active moiety to its parent state: tremendously resistant

## Cc1ccccc1-c1cc(N2CC[N+](C)(COP(=O)([O-])O)CC2)ncc1N(C)C(=O)C(C)(C)c1cc(C(F)(F)F)cc(C(F)(F)F)c1 [parent acid species]
[4]; 1 week
  Degradation: over 8
[4]; 6 months
  Degradation: over 65%
  total degradation: 7.0300

## CCCC(=O)OC[N+]1(C)CCN(c2cc(-c3ccccc3C)c(N(C)C(=O)C(C)(C)c3cc(C(F)(F)F)cc(C(F)(F)F)c3)cn2)CC1 [Compound 8]
[2]
  Solubility (neutral pH): insoluble
[3]
  Chemical Stability: Low

## Cc1ccccc1-c1cc(N2CC[N+](C)(COP(=O)([O-])O)CC2)ncc1N(C)C(=O)C(C)(C)c1cc(C(F)(F)F)cc(C(F)(F)F)c1 [HBr, 48%, 4 eq.]
[4]
  Product stability (comment): Product degrades rapidly.
